What is called Kd is the free concentration of one partner at which half of the binding sites on the other are occupied at equilibrium, for simple one-to-one binding.

The target of this assay is Peptidyl-prolyl cis-trans isomerase FKBP1A (Homo sapiens, UniProt P62942). As to the kind of experiment: Binding affinity to FK506 binding protein 12 was determined.
Sequence of Peptidyl-prolyl cis-trans isomerase FKBP1A (P62942 whole entry): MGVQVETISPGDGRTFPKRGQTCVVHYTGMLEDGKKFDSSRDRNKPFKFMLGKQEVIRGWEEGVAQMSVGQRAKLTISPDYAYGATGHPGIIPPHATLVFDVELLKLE
With `CCCC1C(=O)CC[C@@H](C)[C@@H](CCc2cccnc2)OC(=O)[C@@H]2CCCN(C2)C(=O)C(O)CC[S+]([O-])CC[C@@H](OC)C[C@@H](C)CC(=O)N1C` (stereo not given in full), the Kd was more than 1000 nM.
The value for `C=CC[C@@H]1/C=C(\C)C[C@H](C)C[C@H](OC)[C@@H](O)[C@@H](OC)C[C@@H](C)c2ncoc2C(=O)N2CCCC[C@H]2C(=O)O[C@H](/C(C)=C/[C@@H]2CC[C@@H](O)[C@H](OC)C2)[C@H](C)C(O)CC1=O` (stereo not given in full) was 344 nM.
The value for `C=CC[C@@H]1/C=C(\C)C[C@H](C)C[C@H](OC)[C@@H](O)[C@@H](OC)C[C@@H](C)CC(=O)C(=O)N2CCCC[C@H]2C(=O)O[C@H](/C(C)=C/[C@@H]2CC[C@@H](O)[C@H](OC)C2)[C@H](C)[C@@H](O)CC1=O` was 320 nM.
Under `CCCC1C(=O)CC[C@@H](C)[C@@H](CCc2cccnc2)OC(=O)[C@@H]2CCCN(C2)C(=O)C(=O)CSCC[C@@H](OC)C[C@@H](C)CC(=O)N1C` (stereo not given in full) stands 644 nM; under `CCC(C)C1C(=O)CC[C@@H](C)[C@@H](CCc2cccnc2)OC(=O)[C@@H]2CCCN(C2)C(=O)C(=O)CCSCC[C@@H](OC)C[C@@H](C)CC(=O)N1C` (stereo not given in full), 90 nM.
